In paper PMC12373846, “Hemoglobin as a pseudoperoxidase and drug target for oxidative stress-related diseases” (Signal Transduction and Targeted Therapy, 2025):

Experiments:
[1] = system: primary cultured hippocampal astrocytes; experiment: DCFDA intracellular ROS assay; format: cell-based, mouse; details: for Aβ-induced ROS level (DCFDA), normalized to control: Aβ 5μM + compound 10μM, Fig. 3e; for relative ROS level (DCFDA): Aβ42+KDS12025 10 μM, Fig. 6c
Protocol: Primary hippocampal astrocytes were obtained from postnatal day 0‒2 (P0‒2) C57BL/6 mice as previously described.[73] The hippocampal tissue was dissected free of meninges, minced, and dissociated into a single-cell suspension by trituration. The cells were grown in Dulbecco’s modified Eagle’s medium supplemented with D-glucose (4500 mg/L), L-glutamine, sodium pyruvate (110 mg/L), 10% heat-inactivated horse serum, 10% heat-inactivated fetal bovine serum, and 1000 U/ml penicillin‒streptomycin. The cells were maintained at 37 °C in a humidified atmosphere containing 5% CO2.
The intracellular ROS levels of astrocytes were determined via 2′,7′- dichlorodihydrofluorescein diacetate (DCFDA; Thermo Fisher). Primary cultured hippocampal astrocytes were seeded into black 96-well plates (Ibidi) at a density of 5 × 10⁴ cells per well. The plates were incubated with oligomerized Aβ42 in the presence of KDS12008, KDS12017, KDS12025, HTPEB (10 µM each), and sodium pyruvate (1 mM). These cells were subsequently washed with Ca^2+ and Mg^2+-containing PBS, followed by the application of 30 µM DCFDA and incubation at 37 °C for 30 min in a dark incubator. The mean fluorescence intensity of each well was measured via iD5 microplate readers at 485 nm and 530 nm. The fluorescence values were calculated by subtracting the blank readings and normalizing them to those of the control group.

[2] = ROS-Glo H2O2 assay without HRP or Hb; format: biochemical; details: ROS-Glo assay lacking HRP/Hb
Protocol: (§1) Hb (Sigma‒Aldrich, H7379), H2O2 (Sigma‒Aldrich, H1009), and Amplex Red reagents (Invitrogen, A12222) were obtained for the study. A 4 μM H2O2 solution was prepared in 50 mM sodium phosphate buffer (pH 7.2). Then, 49 μl of this mixture was mixed with 1 μl of the test compound in DMSO or distilled water. The mixture was combined with an assay mixture of Amplex Red reagent (20 mM stock to 0.1 mM) and HRP (200 U/ml stock to 0.2 U/ml) and added to the wells at 50 μl/well. After a 60-min incubation at 37 °C, resorufin production was quantified via a microplate fluorescence reader (SpectraMax iD5, Molecular Devices) at ex/em = 535/580 nm. The H2O2-decomposing activity was estimated via the following equation: (sample fluorescence-blank fluorescence)/(control […]-blank fluorescence) × 100. For the ROS-Glo assay, the H2O2 substrate solution and ROS-Glo detection solution were prepared according to the manufacturer’s instructions. 10 μM H2O2 and drugs were prepared as in the Amplex Red assay, with HRP, Hb, CAT, or GPx added as needed. The mixture was added to the wells at 100 μl/well and incubated for 60 min at 37 °C. H2O2 substrate solution was added, and the mixture was incubated at room temperature for 30 min. After the H2O2 substrate solution was added and incubated at room temperature for 30 min, the ROS-Glo detection solution was added, and the mixture was incubated for 15 min. Luminescence was measured via iD5 microplate readers. The H2O2-decomposing activity was estimated via the following equation: (sample luminescence-blank luminescence)/(control luminescence-blank luminescence) × 100. The U/ml was calculated on the basis of the amount of H2O2 reduced by Hb during the reaction, using μg/ml and U/mg.

HRP = molecular target: T1, HRP (Armoracia rusticana, UniProt P00433); experiment: H2O2 assay with HRP (HRP-EC50); format: biochemical, horseradish; details: Tables S2, S3; read-out: HRP-EC50
T1 sequence (P00433 31-353): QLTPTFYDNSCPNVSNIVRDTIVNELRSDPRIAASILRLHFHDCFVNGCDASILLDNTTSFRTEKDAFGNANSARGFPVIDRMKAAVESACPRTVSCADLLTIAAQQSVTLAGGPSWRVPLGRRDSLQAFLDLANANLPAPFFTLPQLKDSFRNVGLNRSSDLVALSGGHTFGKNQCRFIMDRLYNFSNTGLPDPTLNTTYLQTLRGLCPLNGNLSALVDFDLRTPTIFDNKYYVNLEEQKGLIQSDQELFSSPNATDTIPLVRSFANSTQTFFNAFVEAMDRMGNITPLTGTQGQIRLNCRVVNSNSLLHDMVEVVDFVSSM
Protocol: as §1

APP/PS1 mice = experiment: Passive avoidance test, APP/PS1 mice; format: in vivo, mouse
Protocol: For an animal model of AD, both sexes of 10- to 18-month-old APP/PS1 mice were maintained and used as previously described.[76],[77] To test the effects of novel H2O2-decomposing enhancers in the AD model, the mice were treated by i.p. injection with KDS12008 (3 mg/kg/day), KDS12017 (3 mg/kg/day), or KDS12025 (3 or 10 mg/kg/day) once per day for 1 or 2 weeks, depending on the experimental protocol. All drugs were dissolved in 200 μl of saline, and the amount of each drug was calculated on the basis of the weight (kg) of the mouse. Moreover, KDS12025 (3 mg/kg/day) was orally administered to the AD model for 2 weeks ad libitum.
Sufficiently handled mice were ready before the PAT. The mice were placed in a two-compartment (light and dark) shuttle chamber with a shock generator (Ugo Basile, Italy). On the first day, the mice were placed in the light compartment for acquisition. The mice were allowed to explore the light compartment for 60 s, after which the door separating the light and dark compartments was raised to allow the mice to enter the dark compartment. When the mice entered the dark compartment, the separating door was closed immediately, and an electrical foot shock (0.5 mA, 2 s duration) was delivered through the floor grid. The mice were then moved back to the home cage, and the retention trial was conducted 24 h after the acquisition. On the second day, the mice were again placed in the light compartment for the retention trial. After 60 s, the door was raised to allow the mice to enter the dark compartment. The latency to step through the dark compartment before and after the electric shock was recorded for up to 540 s.

[3] = 3 mg/kg/day i.p., 16 times, Fig. S10b
[4] = APP+KDS12025 3 mg/kg/day ad libitum, Fig. 5m

SMILES	Aβ-induced ROS level (DCFDA), normalized to control [1]	H2O2-decomposing activity without HRP or Hb [2]	EC50 (HRP) [nM]	PAT transfer latency, acquisition (APP/PS1 mice; [3])	PAT transfer latency, retrieval (APP/PS1 mice; [3])	relative ROS level (DCFDA) ([1]; Hbβ-shRNA astrocytes)	relative ROS level (DCFDA) ([1]; Sc-shRNA astrocytes)	PAT transfer latency, acquisition (APP/PS1 mice; 3mpk i.p., 7 times, Fig. S10g)	PAT transfer latency, retrieval (APP/PS1 mice; 3mpk i.p., 7 times, Fig. S10g)	PAT transfer latency, acquisition (APP/PS1 mice; 10mpk i.p., 7 times, Fig. S10g)	PAT transfer latency, retrieval (APP/PS1 mice; 10mpk i.p., 7 times, Fig. S10g)	PAT transfer latency, acquisition (APP/PS1 mice; [4])	PAT transfer latency, retrieval (APP/PS1 mice; [4])
O=C(O)c1cc(NCCc2ccc(C(F)(F)F)cc2)ccc1O [HTPEB, 2-hydroxy-5-[2-(4-trifluoromethyl-phenyl)-ethylamino]-benzoic acid, reference compound]	112.0±8.321	no activity	1520	–	–	–	–	–	–	–	–	–	–
CN(C)c1ccc(NCCc2ccc(C(F)(F)F)cc2)cc1.Cl [KDS12008, N^1,N^1-dimethyl-N^4-(4-(trifluoromethyl)phenethyl)benzene-1,4-diamine hydrochloride salt]	96.78±7.989	–	795	44.42±13.85	233.6±102.3	–	–	–	–	–	–	–	–
CNc1ccc(NCCc2ccc(C(F)(F)F)cc2)cc1.Cl [KDS12017, N^1-methyl-N^4-(4-(trifluoromethyl)phenethyl)benzene-1,4-diamine hydrochloride salt]	109.6±6.466	neither KDS12017 nor KDS12025 degrades H2O2 without Hb	828	71.53±23.24	305.6±137.5	–	–	–	–	–	–	–	–
CNc1ccc(NCCc2ccccc2OC)cc1.Cl [KDS12025, N^1-(2-methoxyphenethyl)-N^4-methylbenzene-1,4-diamine hydrochloride salt]	110.3±5.804	neither KDS12017 nor KDS12025 degrades H2O2 without Hb	529	29.03±6.431	291.0±68.80	134.1±5.185	105.8±2.173	36.47±13.39	341.7±71.16	66.00±15.30	508.8±49.93	21.17±3.843	254.3±56.96
